Source: patent US20260297118A1, “SUBSTITUTED PYRIMIDINONE AND AZAPYRIMIDINONE COMPOUNDS, COMPOSITIONS, AND USES THEREOF” (LAKEWOOD AMEDEX, INC., priority 2023, published 2026)

How the values were obtained:
Type in all cases: cell-based
Escherichia coli (0102) = assay: MIC, broth microdilution, Escherichia coli (0102); settings: pH 4-5, 18 to 24 hours
Description: (§1) MIC testing is conducted using the broth (Mueller Hinton Broth) microdilution procedures relevant to each organism group as established by the Clinical and Laboratory Standards Institute (CLSI; 3-7). MIC plates are prepared in accordance with CLSI (3-7). To prepare the test plates, automated liquid handlers are used to conduct serial dilutions and liquid transfers. Automated liquid handlers utilized in this study include the Multidrop 384 (Labsystems, Helsinki, Finland) and the Biomek 2000 (Beckman Coulter, Fullerton CA). The solution is diluted to desired pH using 1 M Citric Acid or 1 M NaOH buffer. A standardized inoculum of each test organism is prepared per CLSI methods (3, 5-7) to equal a 0.5 McFarland standard in the appropriate media followed by an additional 1:20 dilution (1:10 for anaerobes).
(§2) The plates are then inoculated with 10 μL of the diluted 0.5 McFarland suspension using the Biomek 2000 from low to high drug concentration, resulting in a final concentration of approximately 5×10^5 CFU/mL per well. An un-inoculated plate is incubated for the purpose of assessing solubility of the drug in the test media. The plates are stacked 3 to 4 high, covered with a sterile lid on the top plate, and incubated for 18 to 24 hours according to CLSI. The MIC is recorded as the lowest concentration of respective compound that inhibited visible growth of the organism.

Escherichia coli (6260) = assay: MIC, broth microdilution, Escherichia coli (6260); settings: pH 4-5, 18 to 24 hours
Description: as §1, §2

Escherichia coli (6098) = assay: MIC, broth microdilution, Escherichia coli (6098); settings: pH 4-5, 18 to 24 hours
Description: as §1, §2

Escherichia coli (6258) = assay: MIC, broth microdilution, Escherichia coli (6258); settings: pH 4-5, 18 to 24 hours
Description: as §1, §2

Escherichia coli (6259) = assay: MIC, broth microdilution, Escherichia coli (6259); settings: pH 4-5, 18 to 24 hours
Description: as §1, §2

[1] = tested on: Pseudomonas aeruginosa (0103); assay: MIC, broth microdilution, Pseudomonas aeruginosa (0103); settings: pH 4-5, 18 to 24 hours
Description: as §1, §2

[2] = tested on: Pseudomonas aeruginosa (6160); assay: MIC, broth microdilution, Pseudomonas aeruginosa (6160); settings: pH 4-5, 18 to 24 hours
Description: as §1, §2

[3] = tested on: Pseudomonas aeruginosa (6234); assay: MIC, broth microdilution, Pseudomonas aeruginosa (6234); settings: pH 4-5, 18 to 24 hours
Description: as §1, §2

[4] = tested on: Pseudomonas aeruginosa (6326); assay: MIC, broth microdilution, Pseudomonas aeruginosa (6326); settings: pH 4-5, 18 to 24 hours
Description: as §1, §2

[5] = tested on: Pseudomonas aeruginosa (6328); assay: MIC, broth microdilution, Pseudomonas aeruginosa (6328); settings: pH 4-5, 18 to 24 hours
Description: as §1, §2

[6] = tested on: Staphylococcus aureus (43330); assay: MIC, broth microdilution, Staphylococcus aureus (43330); settings: pH 3, Mueller Hinton Broth, 18 to 24 hours, read-out: MIC
Description: as §1, §2

Escherichia coli (25922) = assay: MIC, broth microdilution, Escherichia coli (25922); settings: pH 3, Mueller Hinton Broth, 18 to 24 hours, read-out: MIC
Description: as §1, §2

[7] = tested on: Pseudomonas aeruginosa (27853); assay: MIC, broth microdilution, Pseudomonas aeruginosa (27853); settings: pH 3, Mueller Hinton Broth, 18 to 24 hours, read-out: MIC
Description: as §1, §2

Candida albicans (22972) = assay: MIC, broth microdilution, Candida albicans (22972); settings: pH 3, Mueller Hinton Broth, 18 to 24 hours, read-out: MIC
Description: as §1, §2

E. faecalis ATCC-29212 = assay: MIC, broth microdilution, E. faecalis ATCC-29212; design: unit not given beside the values; settings: E. faecalis ATCC-29212, Gram +ve; pH 3; 18 to 24 hours
Description: as §1, §2

E. faecalis MMX-3353 = assay: MIC, broth microdilution, E. faecalis MMX-3353; settings: E. faecalis MMX-3353, Gram +ve; pH 3; 18 to 24 hours
Description: as §1, §2

E. faecium ATCC-35667 = assay: MIC, broth microdilution, E. faecium ATCC-35667; settings: E. faecium ATCC-35667, Gram +ve; pH 3; 18 to 24 hours
Description: as §1, §2

E. faecium MMX-3355 = assay: MIC, broth microdilution, E. faecium MMX-3355; design: unit not given beside the values; settings: E. faecium MMX-3355, Gram +ve; pH 3; 18 to 24 hours
Description: as §1, §2

S. agalactiae ATCC-13813 = assay: MIC, broth microdilution, S. agalactiae ATCC-13813; design: unit not given beside the values; settings: S. agalactiae ATCC-13813, Gram +ve; pH 3; 18 to 24 hours
Description: as §1, §2

S. aureus ATCC -3591 = assay: MIC, broth microdilution, S. aureus ATCC -3591; design: unit not given beside the values; settings: S. aureus ATCC -3591, Gram +ve; pH 3; 18 to 24 hours
Description: as §1, §2

S. aureus ATCC-29213 = assay: MIC, broth microdilution, S. aureus ATCC-29213; design: unit not given beside the values; settings: S. aureus ATCC-29213, Gram +ve; pH 3; 18 to 24 hours
Description: as §1, §2

[8] = tested on: S. dysgalactiae ATCC-6644; assay: MIC, broth microdilution, S. dysgalactiae ATCC-6644; design: unit not given beside the values; settings: S. dysgalactiae ATCC-6644, Gram +ve; pH 3; 18 to 24 hours
Description: as §1, §2

[9] = tested on: S. haemolyticus ATCC-29970; assay: MIC, broth microdilution, S. haemolyticus ATCC-29970; settings: S. haemolyticus ATCC-29970, Gram +ve; pH 3; 18 to 24 hours
Description: as §1, §2

S. pyogenes ATCC-49399 = assay: MIC, broth microdilution, S. pyogenes ATCC-49399; design: unit not given beside the values; settings: S. pyogenes ATCC-49399, Gram +ve; pH 3; 18 to 24 hours
Description: as §1, §2

[10] = tested on: S. saprophyticus ATCC-49907; assay: MIC, broth microdilution, S. saprophyticus ATCC-49907; design: unit not given beside the values; settings: S. saprophyticus ATCC-49907, Gram +ve; pH 3; 18 to 24 hours
Description: as §1, §2

A. baumannii ATCC-19606 = assay: MIC, broth microdilution, A. baumannii ATCC-19606; design: unit not given beside the values; settings: A. baumannii ATCC-19606, Gram −ve; pH 3; 18 to 24 hours
Description: as §1, §2

[11] = tested on: A. radioresistens MMX-8551; assay: MIC, broth microdilution, A. radioresistens MMX-8551; design: unit not given beside the values; settings: A. radioresistens MMX-8551, Gram −ve; pH 3; 18 to 24 hours
Description: as §1, §2

C. freundii CDC-0157 = assay: MIC, broth microdilution, C. freundii CDC-0157; design: unit not given beside the values; settings: C. freundii CDC-0157, Gram −ve; pH 3; 18 to 24 hours
Description: as §1, §2

C. striatum ATCC-6940 = assay: MIC, broth microdilution, C. striatum ATCC-6940; settings: C. striatum ATCC-6940, Gram +ve; pH 3; 18 to 24 hours
Description: as §1, §2

E. cloacae ATCC BAA-2468 = assay: MIC, broth microdilution, E. cloacae ATCC BAA-2468; design: unit not given beside the values; settings: E. cloacae ATCC BAA-2468, Gram −ve; pH 3; 18 to 24 hours
Description: as §1, §2

E. coli ATCC-25922 = assay: MIC, broth microdilution, E. coli ATCC-25922; design: unit not given beside the values; settings: E. coli ATCC-25922, Gram −ve; pH 3; 18 to 24 hours
Description: as §1, §2

E. coli MMX-8870 = assay: MIC, broth microdilution, E. coli MMX-8870; settings: E. coli MMX-8870, Gram −ve; pH 3; 18 to 24 hours
Description: as §1, §2

H. influenzae ATCC-49247 = assay: MIC, broth microdilution, H. influenzae ATCC-49247; design: unit not given beside the values; settings: H. influenzae ATCC-49247, Gram −ve; pH 3; 18 to 24 hours
Description: as §1, §2

[12] = tested on: K. pneumoniae ATCC BAA-2146; assay: MIC, broth microdilution, K. pneumoniae ATCC BAA-2146; design: unit not given beside the values; settings: K. pneumoniae ATCC BAA-2146, Gram −ve; pH 3; 18 to 24 hours
Description: as §1, §2

K. pneumoniae ATCC-43816 = assay: MIC, broth microdilution, K. pneumoniae ATCC-43816; design: unit not given beside the values; settings: K. pneumoniae ATCC-43816, Gram −ve; pH 3; 18 to 24 hours
Description: as §1, §2

M. morganii CDC-0519 = assay: MIC, broth microdilution, M. morganii CDC-0519; design: unit not given beside the values; settings: M. morganii CDC-0519, Gram −ve; pH 3; 18 to 24 hours
Description: as §1, §2

P. aeruginosa ATCC-27853 = assay: MIC, broth microdilution, P. aeruginosa ATCC-27853; design: unit not given beside the values; settings: P. aeruginosa ATCC-27853, Gram −ve; pH 3; 18 to 24 hours
Description: as §1, §2

P. mirabilis CDC-0155 = assay: MIC, broth microdilution, P. mirabilis CDC-0155; design: unit not given beside the values; settings: P. mirabilis CDC-0155, Gram −ve; pH 3; 18 to 24 hours
Description: as §1, §2

CCCCOP(=O)(O)OC[C@H]1O[C@@H](n2ccc(N)nc2=O)C[C@@H]1O [R-1, (2R,3S,5R)-5-(4-amino-2-oxopyrimidin-1(2H)-yl)-3-hydroxytetrahydrofuran-2-methyl butyl phosphate]
MIC (Escherichia coli (0102)): 50 mg/mL
MIC (Escherichia coli (6260)): 50 mg/mL
MIC (Escherichia coli (6098)): 50 mg/mL
MIC (Escherichia coli (6258)): 50 mg/mL
MIC (Escherichia coli (6259)): 50 mg/mL
MIC [1]: 25 mg/mL
MIC [2]: 25 mg/mL
MIC [3]: 25 mg/mL
MIC [4]: 25 mg/mL
MIC [5]: 25 mg/mL

CCCCOP(=O)(O)OC[C@H]1O[C@@H](n2ccc(N(C)C)nc2=O)C[C@@H]1O [LAI-008, butyl (((2R,3S,5R)-5-(4-(N,N-dimethylamino)-2-oxopyrimidin-1(2H)-yl)-3-hydroxytetrahydrofuran-2-yl)methyl) hydrogen phosphate]
MIC [6]: 25 mg/mL
MIC (Escherichia coli (25922)): 1 mg/mL
MIC [7]: 5 mg/mL
MIC (Candida albicans (22972)): 50 mg/mL
MIC (E. faecalis ATCC-29212): 3.13
MIC (E. faecalis MMX-3353): 6.25
MIC (E. faecium ATCC-35667): 3.13
MIC (E. faecium MMX-3355): 3.13
MIC (S. agalactiae ATCC-13813): 3.12
MIC (S. aureus ATCC -3591): 6.25
MIC (S. aureus ATCC-29213): 1.56
MIC [8]: 3.12
MIC [9]: 0.39
MIC (S. pyogenes ATCC-49399): 3.12
MIC [10]: 3.13
MIC (A. baumannii ATCC-19606): 12.50
MIC [11]: 12.50
MIC (C. freundii CDC-0157): 3.13
MIC (C. striatum ATCC-6940): 3.12
MIC (E. cloacae ATCC BAA-2468): 12.50
MIC (E. coli ATCC-25922): 6.25
MIC (E. coli MMX-8870): 12.50
MIC (H. influenzae ATCC-49247): 0.78
MIC [12]: 12.50
MIC (K. pneumoniae ATCC-43816): 12.50
MIC (M. morganii CDC-0519): 3.13
MIC (P. aeruginosa ATCC-27853): 5.63
MIC (P. mirabilis CDC-0155): 3.13
